This passage reports IC50 results from ChEMBL document CHEMBL1155187, “Amplification of the inhibitory activity of miglitol by monofluorination” (Bioorg Med Chem Lett, 2009).

In general, pIC50 refers to the IC50 on a negative log10 scale, so that one unit is a factor of ten. High values mean a small IC50, low ones a large IC50.

pIC50: −log10 of the molar value.

This test has as its target Oligo-1,6-glucosidase IMA1 (Saccharomyces cerevisiae S288c, UniProt P53051). In words: Inhibition of baker's yeast alpha-glucosidase by 4-nitrophenolate-based assay.

Sequence of Oligo-1,6-glucosidase IMA1 (P53051 whole entry): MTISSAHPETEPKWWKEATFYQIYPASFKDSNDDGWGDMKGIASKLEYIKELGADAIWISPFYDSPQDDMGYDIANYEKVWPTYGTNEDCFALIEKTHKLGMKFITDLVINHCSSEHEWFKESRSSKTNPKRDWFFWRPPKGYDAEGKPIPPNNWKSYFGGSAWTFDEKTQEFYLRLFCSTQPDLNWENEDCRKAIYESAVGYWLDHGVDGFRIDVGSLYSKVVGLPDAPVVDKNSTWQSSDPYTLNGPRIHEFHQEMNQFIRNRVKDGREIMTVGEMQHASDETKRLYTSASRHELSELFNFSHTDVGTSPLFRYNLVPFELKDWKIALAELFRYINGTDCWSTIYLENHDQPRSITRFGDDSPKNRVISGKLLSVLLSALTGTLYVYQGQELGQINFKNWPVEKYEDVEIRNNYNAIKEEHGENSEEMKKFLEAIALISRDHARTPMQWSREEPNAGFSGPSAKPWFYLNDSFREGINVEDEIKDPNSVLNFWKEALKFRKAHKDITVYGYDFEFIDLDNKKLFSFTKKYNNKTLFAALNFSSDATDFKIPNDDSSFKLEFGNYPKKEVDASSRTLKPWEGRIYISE

The compound `OCCN1C[C@H](O)[C@@H](O)[C@H](O)[C@H]1CO` [MIGLITOL] gave a pIC50 of 2.00. For `OCCN1C[C@@H](F)[C@@H](O)[C@H](O)[C@H]1CO` the value was 2.68.
